Values after ≈ are worked out from the molar mass of the structure shown.

For the data set the following is noted: buffer; pH 7.4; 200.0 µM.
Regarding `COc1ccc(CNC(=S)Nc2ccc(Br)cc2)cc1`, the solubility (kinetic) – broadly, the concentration staying in solution when a stock, usually in DMSO, is diluted into the medium – was under 0.4 µg/mL. As to `COc1ccc(NC(=O)C(c2ccc(Cl)cc2)C(C)C)cn1` (configuration not stated), the solubility (kinetic) was 13.5 µg/mL (≈ 42.3 µM). `CCOc1ncccc1C(=O)Nc1cc(S(=O)(=O)N(CC)CC)ccc1N1CCOCC1` showed a solubility (kinetic) of 6.5 µg/mL (≈ 14.1 µM).

With `CNS(=O)(=O)c1cc(Cl)ccc1Sc1ccccc1C(=O)O`, the solubility (kinetic) was over 53.7 µg/mL.

As to `COc1ccc(S(=O)(=O)N(CCC#N)Cc2ccco2)cc1OC`, the solubility (kinetic) came to 28.2 µg/mL (≈ 80.5 µM). As for `Cc1cc(NC(=O)c2ccno2)no1`, the figure is over 29 µg/mL. On to `O=C(Nc1ccccn1)Nc1ccccc1Cl`, for which the kinetic solubility stood at 0.3 µg/mL (≈ 1.21 µM). For `Cc1c(Cl)cccc1NC(=O)CCN1CCC(C(N)=O)CC1`, the solubility (kinetic) is over 48.6 µg/mL. As for `O=C(NCCc1cccs1)c1ccc(Cl)cc1`, the figure is over 39.9 µg/mL; as for `CCOC(=O)c1c(C)[nH]c(C)c1C(=O)COC(=O)c1ccc(O)cc1`, over 51.8 µg/mL. As for `CCNc1cc(N2CCOCC2)nc(SC)n1`, the figure is over 38.2 µg/mL.

Compound `COc1ccc(CC(=O)N2CCN(c3cccc(Cl)c3)CC2)cc1OC` had a solubility (kinetic) of 48.7 µg/mL (≈ 130 µM). `O=C(Nc1ccc(Cl)cc1F)c1ccc2c(c1)C(=O)N(Cc1ccncc1)C2=O` yielded a solubility (kinetic) of 10.8 µg/mL (≈ 26.4 µM). The compound `CC(=O)Nc1ccccc1Oc1ccccc1` came in with a solubility (kinetic) of over 34.1 µg/mL.

On to `O=C(COC(=O)c1ccc(F)cc1F)Nc1ccc(Cl)cn1`, for which the kinetic solubility came to 3.9 µg/mL (≈ 11.9 µM). As for `CC(=O)c1cccc(NC(=O)COC(=O)c2ccccc2C)c1`, the figure is 4.9 µg/mL (≈ 15.7 µM); as for `COc1cc(NC(=O)c2ccccc2)c(OC)cc1NC(=O)Cc1ccc(F)cc1`, under 0.4 µg/mL. As for `CC1(C)Cc2cccc(C(=O)NC3CCN(Cc4ccccc4)CC3)c2O1`, the figure is 53.2 µg/mL (≈ 146 µM); as for `O=C(Nc1ccc(N2CCCCC2)c(S(=O)(=O)Nc2ccccc2Cl)c1)c1cccnc1`, 1.5 µg/mL (≈ 3.18 µM). `Cc1c(C(=O)Nc2c(C)n(C)n(-c3ccccc3)c2=O)oc2ccc(Cl)cc12` returned a kinetic solubility of over 59.4 µg/mL. In turn, `CCCC(=O)N/C(N)=N/c1nc2ccccc2o1` came in with a kinetic solubility of 11.9 µg/mL (≈ 48.3 µM).

For the compound `Br.COc1ccc(NC2=NCCCCC2)cc1`, the kinetic solubility worked out at 44.7 µg/mL.

`CN(C)CC/C=C1/c2cc(F)ccc2Sc2ccc(Cl)cc21.Cl` displayed a solubility (kinetic) of 32.8 µg/mL. With `COC(=O)C1=C(N)OC2=C(C(=O)CCC2)C1c1cccnc1` (configuration not stated) the figure was 42.7 µg/mL (≈ 142 µM); with `Cc1ccc(C)c(CSCc2nc3ccccc3[nH]2)c1`, 20.6 µg/mL (≈ 72.9 µM); with `O=[N+]([O-])c1cc(F)c(N2CCCC2)cc1Br`, 1.6 µg/mL (≈ 5.53 µM).

The compound `Cc1sc2ncnc(SCC(=O)N3CCCC(C(F)(F)F)C3)c2c1C` (configuration not stated) showed a solubility (kinetic) of 2.7 µg/mL (≈ 6.93 µM).

`COc1ccc(NC(=O)/C=C/c2ccc(OC)c(OC)c2)cn1` showed a solubility (kinetic) of 11.3 µg/mL (≈ 35.9 µM). For the compound `CCN(C/C=C/c1ccccc1OC)Cc1ccccc1`, the kinetic solubility was found to be 18.3 µg/mL (≈ 65 µM). This solubility kinetic is about 1.6-fold higher than that of the compound before.

Consider `CCCCNC(=O)c1ccc(CS(=O)(=O)c2ccc(C)cc2)o1`, for which the solubility (kinetic) was over 50.3 µg/mL.

In turn, `COc1cccc(/C=C(\C#N)c2nc3ccccc3[nH]2)c1OCC(=O)O` returned a kinetic solubility of over 52.4 µg/mL. Regarding `Cc1ccc(C(=O)N2CCN(c3ncnc4c(C)csc34)CC2)cc1`, the solubility (kinetic) is 4.3 µg/mL (≈ 12.2 µM). Compound `CC(C)C(=O)Nc1ccc2oc(=O)ccc2c1` displayed a solubility (kinetic) of 33.5 µg/mL (≈ 145 µM). With `O=C(O)c1sccc1S(=O)(=O)N1CCOCC1` the figure was over 41.6 µg/mL; with `COc1ccc(C(=O)CCC(=O)Nc2ccc(Cl)cc2)cc1`, under 0.7 µg/mL; with `Fc1ccc(CNC(=S)Nc2ccccc2F)cc1`, over 41.7 µg/mL.

In turn, `CCc1ccc(C(=O)OCC(=O)NCC(F)(F)F)cc1` displayed a kinetic solubility of 17.9 µg/mL (≈ 61.9 µM). In turn, `O=C(c1cccs1)c1c[nH]cc1-c1ccccc1` registered a solubility (kinetic) of 4.4 µg/mL (≈ 17.4 µM). As to `CCN(CC)CCNc1oc(-c2ccccc2)nc1S(=O)(=O)c1ccccc1`, the solubility (kinetic) is over 59.9 µg/mL. As for `C1=C(c2c[nH]c3ccccc23)CCN(Cc2ccccc2)C1`, the figure is 7.2 µg/mL (≈ 25 µM); as for `O=C(COC(=O)/C=C/c1ccc(OC(F)F)cc1)NC1CCCCCC1`, 4.6 µg/mL (≈ 12.5 µM); as for `O=[N+]([O-])c1cc(S(=O)(=O)N2CCCC2)ccc1SCCO`, over 49.9 µg/mL. With `Cc1ccc(NC(=O)CCC(=O)c2ccc(Cl)s2)nc1` the figure was 7.5 µg/mL (≈ 24.3 µM); with `C/C(=C\c1ccc(N)cc1)c1nc2ccccc2[nH]1`, over 37.4 µg/mL; with `Cc1ccc(N(CC2CO2)S(=O)(=O)c2ccccc2[N+](=O)[O-])cc1` (configuration not stated), 36.7 µg/mL (≈ 105 µM).

On to `O=C(NC1CCN(c2ncccn2)CC1)c1cccc(F)c1`, for which the kinetic solubility came to 32.8 µg/mL (≈ 109 µM). This solubility kinetic and that of the compound before are within 1.5-fold of each other. Consider `CCCN1CN(c2ccccc2)C(=S)N(c2ccccc2)C1`, for which the kinetic solubility is over 46.7 µg/mL. `Cc1ccc(C2(c3noc(CN(C)CC4CCCCO4)n3)CCCC2)cc1` (configuration not stated): the solubility (kinetic) was determined as 21.2 µg/mL (≈ 57.4 µM). For the compound `O=C(COC(=O)/C=C/c1cccc(F)c1)Nc1ccc(Cl)cn1`, the kinetic solubility is 5 µg/mL (≈ 14.9 µM). Against the preceding compound, the solubility kinetic is about 4.2-fold lower. Compound `Cc1cccc(NC(=O)C2COc3ccccc3O2)c1` (configuration not stated) returned a kinetic solubility of 7.8 µg/mL (≈ 29 µM). The compound `O=C(Nc1cccc(S(=O)(=O)N2CCCCCC2)c1)c1ccc(Cl)nc1` came in with a solubility (kinetic) of 8.2 µg/mL (≈ 20.8 µM).

For `Cc1ccc(S(=O)(=O)NC2CC2)s1`, the kinetic solubility was over 32.6 µg/mL.

(Values after PubChem BioAssay AID1996.)
